Results taken from ChEMBL document CHEMBL2429773, “Synthesis and antiseizure evaluation of isoindoline-1,3-dione derivatives in mice” (Med Chem Res, 2013).

Assays:
Mus musculus [1] = test: Anticonvulsant activity against maximal electroshock-induced seizure in albino mouse assessed as seizures at 300 mg/kg, ip after 0.5 hr; assay type: functional; conditions: route intraperitoneal
Mus musculus [2] = test: Anticonvulsant activity against subcutaneous pentylenetetrazole-induced seizures in albino mouse assessed as onset of seizure time at 300 mg/kg, ip after 0.5 hr; assay type: functional; conditions: route intraperitoneal
Mus musculus [3] = test: Anticonvulsant activity against maximal electroshock-induced seizures in albino mouse assessed as seizure at 30 mg/kg, ip after 0.5 hr; assay type: functional; conditions: route intraperitoneal
Mus musculus [4] = test: Anticonvulsant activity in ip dosed albino mouse assessed as protection against maximal electroshock-induced seizures after 0.5 hr; assay type: functional
Mus musculus [5] = test: Anticonvulsant activity against subcutaneous pentylenetetrazole-induced seizures in albino mouse assessed as onset of seizure time at 100 mg/kg, ip after 0.5 hr; assay type: functional; conditions: route intraperitoneal
Mus musculus [6] = test: Anticonvulsant activity in albino mouse assessed as protection against subcutaneous pentylenetetrazole-induced death measured as mortality at 100 mg/kg, ip after 0.5 hr; assay type: functional; conditions: sc, route intraperitoneal
Mus musculus [7] = test: Anticonvulsant activity against subcutaneous pentylenetetrazole-induced seizures in albino mouse assessed as duration of seizure time at 30 mg/kg, ip after 0.5 hr; assay type: functional; conditions: route intraperitoneal
Mus musculus [8] = test: Anticonvulsant activity in albino mouse assessed as protection against subcutaneous pentylenetetrazole-induced death measured as mortality at 300 mg/kg, ip after 0.5 hr; assay type: functional; conditions: sc, route intraperitoneal
Mus musculus [9] = test: Anticonvulsant activity against subcutaneous pentylenetetrazole-induced seizures in albino mouse assessed as seizure at 100 mg/kg, ip after 0.5 hr; assay type: functional
Mus musculus [10] = test: Anticonvulsant activity against subcutaneous pentylenetetrazole-induced seizures in albino mouse assessed as onset of seizure time at 30 mg/kg, ip after 0.5 hr; assay type: functional; conditions: route intraperitoneal
Mus musculus [11] = test: Anticonvulsant activity against subcutaneous pentylenetetrazole-induced seizures in albino mouse assessed as duration of seizure time at 100 mg/kg, ip after 0.5 hr; assay type: functional; conditions: route intraperitoneal
Mus musculus [12] = test: Anticonvulsant activity in albino mouse assessed as protection against subcutaneous pentylenetetrazole-induced death measured as mortality at 30 mg/kg, ip after 0.5 hr; assay type: functional; conditions: sc
Mus musculus [13] = test: Anticonvulsant activity against subcutaneous pentylenetetrazole-induced seizures in albino mouse assessed as duration of seizure time at 300 mg/kg, ip after 0.5 hr; assay type: functional; conditions: route intraperitoneal
Mus musculus [14] = test: Anticonvulsant activity against maximal electroshock-induced seizures in albino mouse assessed as seizure at 100 mg/kg, ip after 0.5 hr; assay type: functional; conditions: route intraperitoneal
[15] = Neurotoxicity in ip dosed albino mouse measured after 30 mins by rotarod method; assay type: toxicity, organism-based; conditions: in vivo
Mus musculus [16] = test: Protective index, ratio of TD50 for neurotoxicity in ip dosed albino mouse to ED50 for anticonvulsant activity in ip dosed albino mouse; assay type: functional

| SMILES | Activity (Mus musculus [1]) [%] | Time (Mus musculus [2]) [min] | Activity (Mus musculus [3]) [%] | ED50 (Mus musculus [4]) [mg/kg] | Time (Mus musculus [5]) [min] | mortality at 100 mg/kg (Mus musculus [6]) [%] | Time (Mus musculus [7]) [min] | mortality at 300 mg/kg (Mus musculus [8]) [%] | Activity (Mus musculus [9]; route intraperitoneal) [%] | Time (Mus musculus [10]) [min] | Time (Mus musculus [11]) [min] | mortality at 30 mg/kg (Mus musculus [12]; route intraperitoneal) [%] | Time (Mus musculus [13]) [min] | Activity (Mus musculus [14]) [%] | TD50 at 0.5 h [15] [mg/kg] | Ratio TD50/ED50 (Mus musculus [16]) | Activity (Mus musculus [9]; ROUTE) [%] | mortality at 30 mg/kg (Mus musculus [12]) [%] |
| --- | --- | --- | --- | --- | --- | --- | --- | --- | --- | --- | --- | --- | --- | --- | --- | --- | --- | --- |
| COc1cccc(N2C(=O)c3ccccc3C2=O)c1 | 75 | 10.25 | 100 | > 300 | 7.25 | 75 | 7.25 | 25 | 100 | 3 | 18.75 | 100 | 22.25 | 100 | – | – | – | – |
| O=C1c2ccccc2C(=O)N1c1ccc(Cl)cc1 | 25 | 8.25 | 75 | 55 | 3.25 | 75 | 10.5 | 75 | 100 | 3 | 12.75 | 100 | 19.25 | 25 | > 300 | >5.54 | – | – |
| O=C1c2ccccc2C(=O)N1c1cccc(Cl)c1 | 25 | 4.75 | 100 | 190 | 3.75 | 75 | 11.25 | 25 | 100 | 3.5 | 7 | 100 | 9 | 100 | 300 | 1.57 | – | – |
| COc1ccc(N2C(=O)c3ccccc3C2=O)cc1 | 0 | 13.5 | 25 | 15.1 | 5.25 | 100 | 11.75 | 0 | 100 | 3 | 22.25 | 100 | 23.75 | 25 | 89.3 | 5.91 | – | – |
| O=C1c2ccccc2C(=O)N1c1ccccc1Cl | 25 | 9.5 | 100 | 168 | 6.5 | 75 | 8.25 | 100 | 100 | 1.5 | 14.25 | 100 | 24.5 | 75 | – | – | – | – |
| O=C1c2ccccc2C(=O)N1c1ccccc1F | 0 | 4.75 | 100 | > 300 | 5 | 100 | 5.5 | 75 | 100 | 2 | 9 | 100 | 12 | 75 | 233 | <0.77 | – | – |
| O=C1c2ccccc2C(=O)N1c1cccc(F)c1 | 25 | 4.75 | 100 | 39.7 | 4 | 100 | 10.5 | 75 | 100 | 5 | 11 | 100 | 14 | 0 | 31.7 | 0.79 | – | – |
| O=C1c2ccccc2C(=O)N1c1ccc(F)cc1 | 75 | 15.25 | 100 | > 300 | 8.5 | 25 | 13.25 | 0 | 100 | 3 | 23.75 | 25 | 23.5 | 100 | 182 | <0.6 | – | – |
| O=C1c2ccccc2C(=O)N1c1cccc([N+](=O)[O-])c1 | 25 | 10.5 | 100 | 174 | 4.5 | 100 | 6 | 75 | 100 | 3.5 | 16.5 | 100 | 18.25 | 75 | 74.2 | 0.42 | – | – |
| O=C1c2ccccc2C(=O)N1c1ccc([N+](=O)[O-])cc1 | 25 | 6.25 | 100 | 62.3 | 4 | 75 | 5.75 | 75 | 100 | 3.5 | 11.75 | 75 | 15.5 | 25 | 176 | 2.81 | – | – |
| COc1ccccc1N1C(=O)c2ccccc2C1=O | 25 | 7.25 | 100 | 195 | 5.75 | 100 | 9.75 | 75 | 100 | 2.75 | 9.75 | 100 | 13.5 | 100 | 222 | 1.14 | – | – |
| O=C1c2ccccc2C(=O)N1c1ccccc1[N+](=O)[O-] | 0 | 8.75 | 75 | 53.5 | 7.5 | 0 | 7 | 75 | 100 | 2 | 22.5 | 100 | 18 | 25 | > 300 | >5.6 | – | – |
| CN1C(=O)CN=C(c2ccccc2)c2cc(Cl)ccc21 [DIAZEPAM] | – | – | – | 1.8 | – | – | – | – | – | – | – | – | – | – | – | – | 0 | 0 |
| O=C1c2ccccc2C(=O)N1c1ccccc1 [N-PHENYL-PHTHALIMIDE] | 0 | 6 | 100 | 66.2 | 4.5 | 100 | 3.75 | 25 | 100 | 3.25 | 11 | 100 | 15.75 | 25 | > 300 | >4.53 | – | – |
